Biological target: T1, human C1 r (Homo sapiens, UniProt P00736)
T1 construct: purchased Enzyme Research Labs (South Bend, Ind.)
T1 sequence (P00736 464-705 limits assumed): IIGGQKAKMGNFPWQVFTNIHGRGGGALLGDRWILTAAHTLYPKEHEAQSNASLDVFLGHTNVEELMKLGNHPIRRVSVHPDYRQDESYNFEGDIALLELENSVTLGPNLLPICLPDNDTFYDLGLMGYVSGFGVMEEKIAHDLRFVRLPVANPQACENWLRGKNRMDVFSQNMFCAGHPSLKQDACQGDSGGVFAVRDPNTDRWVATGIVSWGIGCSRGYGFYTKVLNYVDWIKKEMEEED
T1 sequence (P00736 18-463 partner limits assumed): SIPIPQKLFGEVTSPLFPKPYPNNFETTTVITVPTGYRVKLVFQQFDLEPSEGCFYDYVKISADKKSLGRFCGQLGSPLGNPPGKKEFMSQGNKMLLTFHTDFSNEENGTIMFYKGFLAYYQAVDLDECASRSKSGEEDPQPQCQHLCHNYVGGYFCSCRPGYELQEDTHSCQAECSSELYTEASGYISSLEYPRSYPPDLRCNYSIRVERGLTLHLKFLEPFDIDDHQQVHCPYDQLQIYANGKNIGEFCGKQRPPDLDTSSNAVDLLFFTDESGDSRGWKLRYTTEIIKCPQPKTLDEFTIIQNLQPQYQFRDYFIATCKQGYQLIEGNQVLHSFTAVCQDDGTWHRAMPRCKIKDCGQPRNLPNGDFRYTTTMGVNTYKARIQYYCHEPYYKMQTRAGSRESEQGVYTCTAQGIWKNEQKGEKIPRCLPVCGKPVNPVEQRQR
Assay: Assay of C1r Enzyme Activity (Assay 1), thioester substrate z-Gly-Arg-S-Bzl with DTNB
Assay type: biochemical
Settings: Table 1 and text, pH 7.4-7.5, read-out: Inhibition of Clr Assay 1 (IC50)
Description: Assay of C1 r Enzyme Activity Purified human C1 r was obtained commercially from Enzyme Research Labs (South Bend, Ind.). The enzyme is stored frozen at -70° C. at a stock concentration of about 1 mg/mL of protein until the enzyme is needed. […] The thioester substrate, z-Gly-Arg-S-Bzl, for C1 r assays (McRae, et al., 1981) is obtained commercially from Enzyme System Products (Livermore, Calif.). All other reagents were obtained from Sigma Chemical Co. (St. Louis, Mo.). The procedure for assaying the inhibition of C1 r enzyme activity is as follows. A 5 mM stock solution of z-Gly-Arg-S-Bzl is made in dimethylsulfoxide (DMSO) and stored at room temperature until needed. The stock substrate solution is diluted 3 parts stock substrate solution to 7 parts distilled water to make a 1.5 mM working substrate solution. The working substrate solution is made just before it is needed. A fresh solution of 20 μg/mL of C1 r enzyme is made in 10 mM Tris buffer, pH 7.4. The enzyme solution can be stored on ice for up to an hour. […] Compounds at concentrations ranging from 1 mM to 0.010 mM are dissolved in DMSO and a 10 μL aliquot of each concentration is deposited in a well of a 96-well microtiter plate. Fifty microliters of the working substrate solution and 50 μL of DTNB solution are then dispensed in the wells of the microtiter plate, followed by the immediate addition of 50 μL of the C1 r enzyme solution to start the assay. The assay produces a yellow color that is read in the kinetic mode using a Molecular Devices Thermomax microplate reader set to a wavelength of 405 nm. The assay background is followed by monitoring wells that contain substrate, buffer, and DTNB solutions but no enzyme. All assays are performed in triplicate at each inhibitor concentration tested. Values for each inhibitor concentration are reported as optical density (OD)/minute.

| Compound | IC50 [µM] |
| --- | --- |
| O=c1oc(Nc2ccccc2Cl)nc2ccccc12 [Example 2, 2-(2-Chloro-phenylamino)-benzo[d][1,3]oxazin-4-one] | 6.5 |
| O=c1oc(Nc2ccccc2Br)nc2ccccc12 [Example 3, 2-(2-Bromo-phenylamino)-benzo[d][1,3]oxazin-4-one] | 5.1 |
| O=c1oc(Nc2ccccc2I)nc2ccccc12 [Example 4, 2-(2-Iodo-phenylamino)-benzo[d][1,3]oxazin-4-one] | 3.5 |
| O=c1oc(Nc2cccc(I)c2)nc2ccccc12 [Example 5, 2-(3-Iodo-phenylamino)-benzo[d][1,3]oxazin-4-one] | > 67 |
| O=c1oc(Nc2ccc(I)cc2)nc2ccccc12 [Example 6, 2-(4-Iodo-phenylamino)-benzo[d][1,3]oxazin-4-one] | > 67 |
| O=c1oc(Nc2c(Cl)cccc2Cl)nc2ccccc12 [Example 7, 2-(2,6-Dichloro-phenylamino)-benzo[d][1,3]oxazin-4-one] | 1.3 |
| CSc1ccccc1Nc1nc2ccccc2c(=O)o1 [Example 8, 2-(2-Methylsulfanyl-phenylamino)-benzo[d][1,3]oxazin-4-one] | > 66 |
| O=c1oc(Nc2ccccc2OC(F)(F)F)nc2ccccc12 [Example 9, 2-(2-Trifluoromethoxy-phenylamino)-benzo[d][1,3]oxazin-4-one] | 4 |
| CN(c1nc2ccccc2c(=O)o1)c1ccccc1I [Example 10, 2-[Methyl-(2-iodo-phenyl)-amino]benzo[d][1,3]oxazin-4-one] | 1.4 |
| CCN(c1nc2ccccc2c(=O)o1)c1ccccc1I [Example 11, 2-[Ethyl-(2-iodo-phenyl)-amino]-benzo[d][1,3]oxazin-4-one] | > 66 |
| CN(C(=O)c1ccccc1I)c1nc2ccccc2c(=O)o1 [Example 12, 2-Iodo-N-methyl-N-(4-oxo-4H-benzo[d][1,3]oxazin-2-yl)-benzamide] | 3.1 |
| CN(C(=O)c1c(Cl)cccc1Cl)c1nc2ccccc2c(=O)o1 [Example 13, 2,6-Dichloro-N-methyl-N-(4-oxo-4H-benzo[d][1,3]oxazin-2-yl)-benzamide] | 8 |
| CN(C(=O)c1ccccc1Br)c1nc2ccccc2c(=O)o1 [Example 14, 2-Bromo-N-methyl-N-(4-oxo-4H-benzo[d][1,3]oxazin-2-yl)-benzamide] | 4 |
| CSc1ccccc1C(=O)N(C)c1nc2ccccc2c(=O)o1 [Example 15, N-Methyl-2-methylsulfanyl-N-(4-oxo-4H-benzo[d][1,3]oxazin-2-yl)-benzamide] | 0.8 |
| CN(C(=O)c1ccccc1C(F)(F)F)c1nc2ccccc2c(=O)o1 [Example 16, N-Methyl-N-(4-oxo-4H-benzo[d][1,3]oxazin-2-yl)-2-trifluoromethyl-benzamide] | 1.5 |
| CN(C(=O)c1ccccc1)c1nc2ccccc2c(=O)o1 [Example 17, N-Methyl-N-(4-oxo-4H-benzo[d][1,3]oxazin-2-yl)benzamide] | 10.7 |
| CCN(C(=O)c1ccccc1I)c1nc2ccccc2c(=O)o1 [Example 18, N-Ethyl-2-iodo-N-(4-oxo-4H-benzo[d][1,3]oxazin-2-yl)-benzamide] | 8.3 |
| CN(C)c1ccc2c(=O)oc(Nc3ccccc3I)nc2c1 [Example 19, 7-Dimethylamino-2-(2-iodo-phenylamino)-benzo[d][1,3]oxazin-4-one] | > 66 |
| O=c1oc(Nc2ccccc2I)nc2cc3ccccc3cc12 [Example 20, 2-(2-Iodo-phenylamino)-naphtho[2,3-d][1,3]oxazin-4-one] | 1.4 |
| O=c1oc(Nc2ccccc2I)nc2cccc(Cl)c12 [Example 21, 5-Chloro-2-(2-iodo-phenylamino)-benzo[d][1,3]oxazin-4-one] | 14.5 |

| Compound | IC50 [µM] |
| --- | --- |
| O=c1oc(Nc2ccccc2I)nc2ccc(Cl)cc12 [Example 22, 6-Chloro-2-(2-iodo-phenylamino)-benzo[d][1,3]oxazin-4-one] | 4 |
| O=c1oc(Nc2ccccc2I)nc2cc(Cl)ccc12 [Example 23, 7-Chloro-2-(2-iodo-phenylamino)-benzo[d][1,3]oxazin-4-one] | 0.7 |
| COc1ccc2nc(Nc3ccccc3I)oc(=O)c2c1 [Example 24, 2-(2-Iodo-phenylamino)-6-methoxy-benzo[d][1,3]oxazin-4-one] | 55 |
| COc1ccc2c(=O)oc(Nc3ccccc3I)nc2c1 [Example 25, 2-(2-Iodo-phenylamino)-7-methoxy-benzo[d][1,3]oxazin-4-one] | > 66 |
| Cc1cccc2nc(Nc3ccccc3I)oc(=O)c12 [Example 26, 2-(2-Iodo-phenylamino)-5-methyl-benzo[d][1,3]oxazin-4-one] | > 66 |
| Cc1ccc2nc(Nc3ccccc3I)oc(=O)c2c1 [Example 27, 2-(2-Iodo-phenylamino)-6-methyl-benzo[d][1,3]oxazin-4-one] | > 66 |
| Cc1ccc2c(=O)oc(Nc3ccccc3I)nc2c1 [Example 28, 2-(2-Iodo-phenylamino)-7-methyl-benzo[d][1,3]oxazin-4-one] | 0.8 |
| O=c1oc(Nc2ccccc2I)nc2cc(Cl)c(Cl)cc12 [Example 29, 6,7-Dichloro-2-(2-iodo-phenylamino)-benzo[d][1,3]oxazin-4-one] | 0.5 |
| O=c1oc(Nc2ccccc2I)nc2cc([N+](=O)[O-])ccc12 [Example 30, 2-(2-Iodo-phenylamino)-7-nitro-benzo[d][1,3]oxazin-4-one] | 0.75 |
| O=c1oc(Nc2ccccc2I)nc2cc(C(F)(F)F)ccc12 [Example 31, 2-(2-Iodo-phenylamino)-7-trifluoromethylbenzo[d][1,3]oxazin-4-one] | 0.4 |
| CN(C(=O)c1ccsc1)c1nc2ccccc2c(=O)o1 [Example 32, Thiophene-3-carboxylic acid methyl-(4-oxo-4H-benzo[d][1,3]oxazin-2-yl)-amide] | 6 |
| CN(C(=O)c1ccccc1F)c1nc2ccccc2c(=O)o1 [Example 33, 2-Fluoro-N-methyl-N-(4-oxo-4H-benzo[d][1,3]oxazin-2-yl)-benzamide] | 60 |
| CN(C(=O)c1ccccc1Cl)c1nc2ccccc2c(=O)o1 [Example 34, 2-Chloro-N-methyl-N-(4-oxo-4H-benzo[d][1,3]oxazin-2-yl)-benzamide] | 16 |
| COc1ccccc1C(=O)N(C)c1nc2ccccc2c(=O)o1 [Example 35, 2-Methoxy-N-methyl-N-(4-oxo-4H-benzo[d][1,3]oxazin-2-yl)-benzamide] | > 66 |
| Cc1ccccc1C(=O)N(C)c1nc2ccccc2c(=O)o1 [Example 36, 2,N-Dimethyl-N-(4-oxo-4H-benzo[d][1,3]oxazin-2-yl)-benzamide] | > 67 |
| CN(C(=O)c1cccc(I)c1)c1nc2ccccc2c(=O)o1 [Example 37, 3-Iodo-N-methyl-N-(4-oxo-4H-benzo[d][1,3]oxazin-2-yl)-benzamide] | 20 |
| CN(C(=O)c1ccc(I)cc1)c1nc2ccccc2c(=O)o1 [Example 38, 4-Iodo-N-methyl-N-(4-oxo-4H-benzo[d][1,3]oxazin-2-yl)-benzamide] | 33 |
| Cc1cccc2nc(N(C)C(=O)c3ccccc3I)oc(=O)c12 [Example 39, 2-Iodo-N-methyl-N-(5-methyl-4-oxo-4H-benzo[d][1,3]oxazin-2-yl)-benzamide] | > 66 |
| Cc1ccc2nc(N(C)C(=O)c3ccccc3I)oc(=O)c2c1 [Example 40, 2-Iodo-N-methyl-N-(6-methyl-4-oxo-4H-benzo[d][1,3]oxazin-2-yl)-benzamide] | 1.3 |

From US5652237A, “2-substituted-4H-3, 1-benzoxazin-4-ones and benzthiazin-4-ones as inhibitors of complement C1r protease for the treatment of inflammatory processes” (Warner-Lambert Company, priority 1995, dated 1997)
